Data: US20260250318A1, “COMPOSITIONS AND METHODS FOR CROSSING THE BLOOD BRAIN BARRIER” (VOYAGER THERAPEUTICS, INC., priority 2022, published 2026)

Legend:
Settings in all cases: synthetic library passage 3, intravenous, relative to wild-type AAV9
[1] = system: brain, spinal cord, and DRG of the NHPs; experiment: NGS fold enrichment of synthetic library (passage 3) in NHPs, first cross-species screen; assay type: in vivo, cynomolgus macaques (Macaca fascicularis)
In short: (§1)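 Synthetic capsid library (passage 3) was given intravenously […] to NHPs aged 2-4 years and to BALB/c and C57Bl/6 mice (n=3 each, 6-8 weeks). After about 28 days in vivo, tissue RNA was RT-PCR amplified and NGS-sequenced; values are fold enrichment per variant relative to wild-type AAV9.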

brain [2] = experiment: NGS fold enrichment of synthetic library (passage 3) in BALB/c mice, first cross-species screen; assay type: in vivo
In short: as §1

brain [3] = experiment: NGS fold enrichment of synthetic library (passage 3) in C57Bl/6 mice, first cross-species screen; assay type: in vivo
In short: as §1

[4] = RNA from spinal cord of NHPs, NGS
[5] = RNA from brain of BALB/c mice, NGS
[6] = RNA from brain of C57Bl/6 mice, NGS

Row | Sequence | Fold enrichment over AAV9 in the brain of NHPs ([1]; RNA from brain of NHPs, NGS) | Fold enrichment over AAV9 in the spinal cord of NHPs [1, 4] | Fold enrichment over AAV9 in the brain of Mice (BALB/c) (brain [2]; [5]) | Fold enrichment over AAV9 in the brain of Mice (C57Bl/6) (brain [3]; [6]) | Fold enrichment over AAV9 in the brain of NHPs ([1]; RNA NGS, brain of NHPs) | Fold enrichment over AAV9 in the spinal cord of NHPs ([1]; RNA NGS, spinal cord of NHPs) | Fold enrichment over AAV9 in the brain of Mice (BALB/c) (brain [2]; RNA NGS, brain of BALB/c mice) | Fold enrichment over AAV9 in the brain of Mice (C57Bl/6) (brain [3]; RNA NGS, brain of C57Bl/6 mice)
1 | GSGQHLPLLGNQQT | 1.175 fold | 1.739 fold | 0.347 fold | 0.519 fold |  |  |  | 
2 | GSGQHSNQHVNQQT | 1.192 fold | 1.453 fold | 0.558 fold | 0.955 fold |  |  |  | 
3 | GSGQHSPHALNQQT |  |  |  |  | 1.064 fold | 1.412 fold | 0.573 fold | 0.885 fold
4 | GSGQHVSVANNQQT |  |  |  |  | 1.029 fold | 5.734 fold | 0.577 fold | 0.974 fold
5 | GSGQIKGKMDNQQT |  |  |  |  | 1.654 fold | 2.601 fold | 1.012 fold | 1.065 fold
6 | GSGQILHSVPNQQT |  |  |  |  | 1.752 fold | 1.316 fold | 0.240 fold | 0.398 fold
7 | GSGQIRESMGNQQT | 1.270 fold | 1.676 fold | 0.523 fold | 0.833 fold |  |  |  | 
8 | GSGQIRHSDQNQQT |  |  |  |  | 2.600 fold | 12.884 fold | 0.320 fold | 1.170 fold
9 | GSGQIRQLVDNQQT |  |  |  |  | 1.657 fold | 5.529 fold | 0.272 fold | 0.314 fold
10 | GSGQIVSTQTNQQT |  |  |  |  | 1.456 fold | 1.103 fold | 0.512 fold | 0.453 fold
11 | GSGQKMWKLDNQQT | 1.341 fold | 0.000 fold | 1.418 fold | 0.990 fold |  |  |  | 
12 | GSGQKQERAVSKQT | 1.277 fold | 0.000 fold | 0.732 fold | 1.174 fold |  |  |  | 
13 | GSGQLGLSVTNQQT | 1.364 fold | 6.906 fold | 0.376 fold | 1.395 fold |  |  |  | 
14 | GSGQLIASVVNQQT |  |  |  |  | 1.005 fold | 0.086 fold | 0.359 fold | 0.197 fold
15 | GSGQLPQSGLNQQT | 1.218 fold | 1.504 fold | 0.318 fold | 0.641 fold |  |  |  | 
16 | GSGQLPRQMTNQQT | 1.376 fold | 3.550 fold | 0.562 fold | 0.400 fold |  |  |  | 
17 | GSGQLRSLSTNQQT |  |  |  |  | 1.622 fold | 6.855 fold | 0.382 fold | 1.310 fold
18 | GSGQLSGIGGNQQT |  |  |  |  | 3.266 fold | 0.287 fold | 0.626 fold | 0.993 fold
19 | GSGQLSGTPQNQQT | 1.185 fold | 1.382 fold | 0.643 fold | 1.025 fold |  |  |  | 
20 | GSGQLSHQSVNQQT |  |  |  |  | 1.898 fold | 4.032 fold | 0.695 fold | 0.720 fold
